According to article doi:10.1101/2023.04.18.537371v1 (bioRxiv, 2023):
Each block holds one substance with its values, some of them ahead of it. Ends that are not written are not given here.

How the values were obtained:
[1] = Plasma and brain levels in male CD-1 mice after a single IP dose; format: in vivo, CD-1 mouse; conditions: for Tissue Homogenate Conc / Plasma Conc: male CD-1 mice, IP 10 mg/kg single
TLR2 = conditions: read-out: KD for binding to TLR2; ref 1 (Li et al); cited from earlier work
[2] = male, CD-1, mouse, brain homogenate, ip, 10 mg/kg
[3] = male, CD-1, mouse, brain, ip, 10 mg/kg
[4] = male, CD-1, mouse, plasma, ip, 10 mg/kg

Tissue Homogenate Conc ([1]; brain homogenate, 0.5 h, animal 2): 2.17 ng/mL | Tissue Homogenate Conc ([1]; brain homogenate, 0.5 h, animal 3): 3.18 ng/mL | Tissue Homogenate Conc ([1]; brain homogenate, 1 h, animal 1): 1.69 ng/mL | Tissue Homogenate Conc ([1]; brain homogenate, 1 h, animal 2): 1.78 ng/mL | Tissue Homogenate Conc ([1]; brain homogenate, 1 h, animal 3): 2.20 ng/mL | Tissue Homogenate Conc ([1]; brain homogenate, 2 h, animal 1): 1.64 ng/mL | Tissue Homogenate Conc ([1]; brain homogenate, 2 h, animal 2): 1.28 ng/mL | Tissue Homogenate Conc ([1]; brain homogenate, 2 h, animal 3): 1.22 ng/mL | Tissue Homogenate Conc ([1]; brain homogenate, 4 h, animal 1): 1.16 ng/mL | Tissue Homogenate Conc ([1]; brain homogenate, 4 h, animal 2): 1.03 ng/mL | Tissue Homogenate Conc ([1]; brain homogenate, 4 h, animal 3): 1.08 ng/mL | level at 0.5 h [1, 2]: 2.56 ng/mL | level at 1 h [1, 2]: 1.89 ng/mL | level at 2 h [1, 2]: 1.38 ng/mL | level at 4 h [1, 2]: 1.09 ng/mL | tissue level at time at 0.5 h [1, 3]: 10.3 ng/g | tissue level at time at 1 h [1, 3]: 7.56 ng/g | tissue level at time at 2 h [1, 3]: 5.52 ng/g | tissue level at time at 4 h [1, 3]: 4.36 ng/g | level at 0.5 h [1, 4]: 132 ng/mL | level at 1 h [1, 4]: 90.9 ng/mL | level at 2 h [1, 4]: 59.5 ng/mL | level at 4 h [1, 4]: 49 ng/mL | level at 8 h [1, 4]: 27.6 ng/mL | Plasma Conc ([1]; plasma, 0.5 h, animal 1, LC-MS/MS): 144 ng/mL | Plasma Conc ([1]; plasma, 0.5 h, animal 2): 136 ng/mL | Plasma Conc ([1]; plasma, 0.5 h, animal 3): 115 ng/mL | Plasma Conc ([1]; plasma, 1 h, animal 1): 80.1 ng/mL | Plasma Conc ([1]; plasma, 1 h, animal 2): 107 ng/mL | Plasma Conc ([1]; plasma, 1 h, animal 3): 85.7 ng/mL | Plasma Conc ([1]; plasma, 2 h, animal 1): 56.5 ng/mL | Plasma Conc ([1]; plasma, 2 h, animal 2): 67.2 ng/mL | Plasma Conc ([1]; plasma, 2 h, animal 3): 54.8 ng/mL | Plasma Conc ([1]; plasma, 4 h, animal 1): 53.4 ng/mL | Plasma Conc ([1]; plasma, 4 h, animal 2): 42.2 ng/mL | Plasma Conc ([1]; plasma, 4 h, animal 3): 51.3 ng/mL | Plasma Conc ([1]; plasma, 8 h, animal 1): 28.7 ng/mL | Plasma Conc ([1]; plasma, 8 h, animal 2): 30.6 ng/mL | Plasma Conc ([1]; plasma, 8 h, animal 3): 23.6 ng/mL
Substance: RKDVY [TP5, thymopentin, reference compound] [listing 1 of 2 here]

Substance: RKDVY [TP5, thymopentin, reference compound] [listing 2 of 2 here]
Kd (TLR2): 1570 nM
